Molecular target: T1, human HSL (Homo sapiens, UniProt Q05469)
T1 construct: generate a full length human HSL ORF with a 3′-His6 tag; made in house; host or cells: High 5 insect cells (baculovirus, pFast-BAC)
T1 sequence (Q05469 1-1076): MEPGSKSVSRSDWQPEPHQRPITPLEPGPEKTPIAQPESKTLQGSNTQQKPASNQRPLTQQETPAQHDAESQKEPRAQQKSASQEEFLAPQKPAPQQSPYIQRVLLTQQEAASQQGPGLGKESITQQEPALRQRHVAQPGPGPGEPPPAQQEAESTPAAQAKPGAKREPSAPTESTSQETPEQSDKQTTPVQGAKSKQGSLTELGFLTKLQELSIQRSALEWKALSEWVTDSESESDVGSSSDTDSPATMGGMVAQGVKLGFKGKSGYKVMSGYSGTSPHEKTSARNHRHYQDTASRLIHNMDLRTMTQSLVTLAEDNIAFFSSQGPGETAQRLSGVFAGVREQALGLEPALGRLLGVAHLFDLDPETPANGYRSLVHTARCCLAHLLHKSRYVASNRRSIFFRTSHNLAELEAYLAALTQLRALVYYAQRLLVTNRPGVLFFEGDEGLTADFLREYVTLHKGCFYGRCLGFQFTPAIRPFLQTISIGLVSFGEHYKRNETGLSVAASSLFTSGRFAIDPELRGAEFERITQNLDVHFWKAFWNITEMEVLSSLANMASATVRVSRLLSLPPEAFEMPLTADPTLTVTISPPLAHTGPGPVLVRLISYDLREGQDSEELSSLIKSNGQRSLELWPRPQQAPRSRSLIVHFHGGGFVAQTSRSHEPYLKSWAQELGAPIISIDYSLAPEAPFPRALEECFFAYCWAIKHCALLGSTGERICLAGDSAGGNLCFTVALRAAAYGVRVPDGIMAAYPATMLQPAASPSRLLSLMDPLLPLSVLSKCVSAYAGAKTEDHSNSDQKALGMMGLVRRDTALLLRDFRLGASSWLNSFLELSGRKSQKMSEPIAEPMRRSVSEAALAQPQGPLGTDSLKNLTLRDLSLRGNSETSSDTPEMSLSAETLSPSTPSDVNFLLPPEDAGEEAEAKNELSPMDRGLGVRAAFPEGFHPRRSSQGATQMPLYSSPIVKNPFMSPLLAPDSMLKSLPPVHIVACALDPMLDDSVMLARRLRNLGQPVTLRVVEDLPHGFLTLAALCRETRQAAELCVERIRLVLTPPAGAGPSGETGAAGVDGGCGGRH
Test: Human Hormone-Sensitive Lipase (HSL) enzyme inhibition assay (colorimetric, DMPT substrate)
Assay type: biochemical
Conditions: human full length HSL-His6, 2,3-dimercapto-1-propanol tributyrate substrate, 37° C. 20 minutes, absorbance at 405 nm; read-out: HSL hum IC50
Procedure, shortened: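 Full-length human HSL with C-terminal His6, expressed in baculovirus-infected High 5 cells and Ni-NTA purified, was added (15 ug/ml stock) to 1.5 mM DMPT in 100 mM MOPS pH 7.2, 0.2 mg/ml fatty acid-free BSA containing compound. After 20 min at 37 °C, DTNB with SDS/Triton X-100 was added; A405 read after 15 min at RT.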

Structure (SMILES)	IC50 [nM]
COC[C@]1(O)CC[C@]2(CCN(c3ccc(C4CC(F)(F)C4)cc3)C2=O)CC1 [Example 342, (5α,8α)-2-[4-(3,3-Difluoro-cyclobutyl)-phenyl]-8-hydroxy-8-methoxymethyl-2-aza-spiro[4.5]decan-1-one]	30
CCC[C@]1(O)CC[C@]2(CCN(c3ccc(C(C)(C)C)cc3)C2=O)CC1 [Example 343, (5α,8α)-2-(4-tert-Butyl-phenyl)-8-hydroxy-8-propyl-2-aza-spiro[4.5]decan-1-one]	20
CC(C)[C@]1(O)CC[C@]2(CCN(c3ccc(C(C)(C)C)cc3)C2=O)CC1 [Example 344, (5α,8α)-2-(4-tert-Butyl-phenyl)-8-hydroxy-8-isopropyl-2-aza-spiro[4.5]decan-1-one]	10
CC(C)(C)c1ccc(N2CC[C@]3(CC[C@@](O)(C(F)(F)F)CC3)C2=O)cc1 [Example 345, (5α,8α)-2-(4-tert-Butyl-phenyl)-8-hydroxy-8-trifluoromethyl-2-aza-spiro[4.5]decan-1-one]	20
COC[C@]1(O)CC[C@]2(CCN(c3ccc(C(C)(C)C)cc3)C2=O)CC1 [Example 346, (5α,8α)-2-(4-tert-Butyl-phenyl)-8-hydroxy-8-methoxymethyl-2-aza-spiro[4.5]decan-1-one]	20
CC(C)(C)c1ccc(N2CC[C@]3(CC[C@@](O)(COCC(F)(F)F)CC3)C2=O)cc1 [Example 347, (5α,8α)-2-(4-tert-Butyl-phenyl)-8-hydroxy-8-(2,2,2-trifluoro-ethoxymethyl)-2-aza-spiro[4.5]decan-1-one]	10
CCOC[C@]1(O)CC[C@]2(CCN(c3ccc(C(C)(C)C)cc3)C2=O)CC1 [Example 348, (5α,8α)-2-(4-tert-Butyl-phenyl)-8-ethoxymethyl-8-hydroxy-2-aza-spiro[4.5]decan-1-one]	10
CC(C)OC[C@]1(O)CC[C@]2(CCN(c3ccc(C(C)(C)C)cc3)C2=O)CC1 [Example 349, (5α,8α)-2-(4-tert-Butyl-phenyl)-8-hydroxy-8-isopropoxymethyl-2-aza-spiro[4.5]decan-1-one]	10
CC(C)(C)c1ccc(N2CC[C@]3(CC[C@@](O)(CN4CCCC4=O)CC3)C2=O)cc1 [Example 350, (5α,8α)-2-(4-tert-Butyl-phenyl)-8-hydroxy-8-(2-oxo-pyrrolidin-1-ylmethyl)-2-aza-spiro[4.5]decan-1-one]	10
CC(C)(C)c1ccc(N2CC[C@]3(CC[C@@](O)(CN4CCCCC4=O)CC3)C2=O)cc1 [Example 351, (5α,8α)-2-(4-tert-Butyl-phenyl)-8-hydroxy-8-(2-oxo-piperidin-1-ylmethyl)-2-aza-spiro[4.5]decan-1-one]	10
CC(C)(C)c1ccc(N2CCC3(CCC(O)(COc4ccccn4)CC3)C2=O)cc1 (stereo not drawn) [Example 352, (5α,8α)-2-(4-tert-Butyl-phenyl)-8-hydroxy-8-(pyridin-2-yloxymethyl)-2-aza-spiro[4.5]decan-1-one]	30
CC(C)(C)c1ccc(N2CCC3(CCC(O)(Cn4ccccc4=O)CC3)C2=O)cc1 (stereo not drawn) [Example 353, (5α,8α)-2-(4-tert-Butyl-phenyl)-8-hydroxy-8-(2-oxo-2H-pyridin-1-ylmethyl)-2-aza-spiro[4.5]decan-1-one]	10
CC(C)(C)c1ccc(N2CC[C@]3(CC[C@@](O)(COc4cccnc4)CC3)C2=O)cc1 [Example 354, (5α,8α)-2-(4-tert-Butyl-phenyl)-8-hydroxy-8-(pyridin-3-yloxymethyl)-2-aza-spiro[4.5]decan-1-one]	50
CC(C)C(O)[C@H]1CC[C@@]2(CCN(c3ccc(C(C)(C)C)cc3)C2=O)CC1 (stereo partly drawn) [Example 355, (5α,8β)-2-(4-tert-Butyl-phenyl)-8-(1-hydroxy-2-methyl-propyl)-2-aza-spiro[4.5]decan-1-one]	50
CC(C)C(O)[C@H]1CC[C@]2(CCN(c3ccc(C(C)(C)C)cc3)C2=O)CC1 (stereo partly drawn) [Example 356]	100
CC(O)C1CCC2(CC1)CCN(c1ccc(C(C)(C)C)cc1)C2=O (stereo not drawn) [Example 357, (5α,8β)-2-(4-tert-Butyl-phenyl)-8-(1-hydroxy-ethyl)-2-aza-spiro[4.5]decan-1-one]	50
CC(O)C1CCC2(CC1)CCN(c1ccc(C(C)(C)C)cc1)C2=O (stereo not drawn) [Example 358, (5α,8α)-2-(4-tert-Butyl-phenyl)-8-(1-hydroxy-ethyl)-2-aza-spiro[4.5]decan-1-one]	50
CCC(O)[C@H]1CC[C@@]2(CCN(c3ccc(C(C)(C)C)cc3)C2=O)CC1 (stereo partly drawn) [Example 359, (5α,8β)-2-(4-tert-Butyl-phenyl)-8-(1-hydroxy-propyl)-2-aza-spiro[4.5]decan-1-one]	30
CC(C)(C)c1ccc(N2CCC3(CCC(C(O)(O)C(F)(F)F)CC3)C2=O)cc1 (stereo not drawn) [Example 362, 2-(4-tert-Butyl-phenyl)-8-(2,2,2-trifluoro-1,1-dihydroxy-ethyl)-2-aza-spiro[4.5]decan-1-one]	10
CC(C)(C)c1ccc(N2CC[C@]3(CC[C@@H](C(O)c4ccn[nH]4)CC3)C2=O)cc1 (stereo partly drawn) [Example 363, (5α,8β)-2-(4-tert-Butyl-phenyl)-8-[hydroxy-(2H-pyrazol-3-yl)-methyl]-2-aza-spiro[4.5]decan-1-one]	30
CC(C)(C)c1ccc(N2CC[C@]3(CC[C@@H](Cc4ccn[nH]4)CC3)C2=O)cc1 [Example 364, (5α,8β)-2-(4-tert-Butyl-phenyl)-8-(2H-pyrazol-3-ylmethyl)-2-aza-spiro[4.5]decan-1-one]	10
CCC(O)[C@H]1CC[C@@]2(CCN(c3ccc(O[C@H](C)C(F)(F)F)cc3)C2=O)CC1 (stereo partly drawn) [Example 365, (5α,8β)-8-(1-Hydroxy-propyl)-2-[4-((R)-2,2,2-trifluoro-1-methyl-ethoxy)-phenyl]-2-aza-spiro[4.5]decan-1-one]	50
CCC(O)[C@H]1CC[C@]2(CCN(c3ccc(O[C@H](C)C(F)(F)F)cc3)C2=O)CC1 (stereo partly drawn) [Example 366, (5α,8α)-8-(1-Hydroxy-propyl)-2-[4-((R)-2,2,2-trifluoro-1-methyl-ethoxy)-phenyl]-2-aza-spiro[4.5]decan-1-one]	290
O=C1CCCN1C[C@]1(O)CC[C@]2(CCN(c3ccc(OCC(F)(F)F)cc3)C2=O)CC1 [Example 367, (5α,8α)-8-Hydroxy-8-(2-oxo-pyrrolidin-1-ylmethyl)-2-[4-(2,2,2-trifluoro-ethoxy)-phenyl]-2-aza-spiro[4.5]decan-1-one]	80
O=C1CCCCN1C[C@]1(O)CC[C@]2(CCN(c3ccc(OCC(F)(F)F)cc3)C2=O)CC1 [Example 368, (5α,8α)-8-Hydroxy-8-(2-oxo-piperidin-1-ylmethyl)-2-[4-(2,2,2-trifluoro-ethoxy)-phenyl]-2-aza-spiro[4.5]decan-1-one]	80
O=c1ccccn1C[C@]1(O)CC[C@]2(CCN(c3ccc(OCC(F)(F)F)cc3)C2=O)CC1 [Example 369, (5α,8α)-8-Hydroxy-8-(2-oxo-2H-pyridin-1-ylmethyl)-2-[4-(2,2,2-trifluoro-ethoxy)-phenyl]-2-aza-spiro[4.5]decan-1-one]	20
O=c1ccccn1C[C@]1(O)CC[C@@]2(CCN(c3ccc(OCC(F)(F)F)cc3)C2=O)CC1 [Example 370, (5α,8β)-8-Hydroxy-8-(2-oxo-2H-pyridin-1-ylmethyl)-2-[4-(2,2,2-trifluoro-ethoxy)-phenyl]-2-aza-spiro[4.5]decan-1-one]	80
O=C1N(c2ccc(OCC(F)(F)F)cc2)CC[C@]12CC[C@@](O)(COc1ccccn1)CC2 [Example 371, (5α,8α)-8-Hydroxy-8-(pyridin-2-yloxymethyl)-2-[4-(2,2,2-trifluoro-ethoxy)-phenyl]-2-aza-spiro[4.5]decan-1-one]	20
CO[C@H](c1ccc(N2CC[C@]3(CC[C@@](O)(COCC(F)(F)F)CC3)C2=O)cc1)C(F)(F)F [Example 372, (5α,8α)-8-Hydroxy-8-(2,2,2-trifluoro-ethoxymethyl)-2-[4-((R)-2,2,2-trifluoro-1-methoxy-ethyl)-phenyl]-2-aza-spiro[4.5]decan-1-one]	17
CCc1ccc(CCN2CC[C@]3(CC[C@@](O)(COC)CC3)C2=O)cc1 [Example 373, (5α,8α)-2-[2-(4-Ethyl-phenyl)-ethyl]-8-hydroxy-8-methoxymethyl-2-aza-spiro[4.5]decan-1-one]	70

— patent US8440710B2, “HSL inhibitors useful in the treatment of diabetes” (Hoffmann-La Roche Inc., priority 2009, dated 2013)
